Assay results from patent US11267826B2, “Penicillin-binding protein inhibitors” (priority 2017, dated 2022).

What was measured:
[1] = test system: hyper-permeable E. coli 901C; test: Broth microdilution MIC assay, hyper-permeable E. coli; assay type: cell-based; conditions: Escherichia coli, read-out: E. coli 901C MIC
Outline: (§1)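 Following CLSI procedures, compounds were serially diluted 2-fold and challenged with bacteria at 5×10^5 CFU/mL in Mueller-Hinton broth supplemented with divalent cations. After 16-20 hours at 37° C, the lowest concentration without visible growth was recorded as the MIC.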

E. coli PBP2 = biological target: T1, E. coli PBP2 (Escherichia coli, UniProt P0AD65); test: Bocillin FL competition binding assay, PBP2; parameters: species or system Escherichia coli K12; conditions: 15 min pre-incubation
T1 construct: 100 μg's of total membrane protein extracts containing PBPs; endogenous in cells; host or cells: Escherichia coli K12, membrane protein fraction
Outline: (§2)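 E. coli K12 membrane extracts (100 µg protein) pre-incubated 15 min with compound (0.005–2,480 µg/mL) in pH 7 phosphate/350 mM NaCl, then labelled with Bocillin FL 30 min at 35°C; SDS-PAGE fluorescence (ex 450/em 520 nm), μg/mL reported. PBP1a/1b unresolved, reported combined.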

E. coli K12 PBP1b = biological target: T2, E. coli K12 PBP1b (Escherichia coli, UniProt P02919); test: Competition binding assay using Bodipy-FL boronic acid probe (Example 125); conditions: Bodipy-FL boronic acid probe (Example 125) 30 μM, 10 minutes pre-incubation, 10 minutes reaction
T2 construct: endogenous in cells; host or cells: Escherichia coli K12, membrane protein fraction
Experimental: Penicillin binding proteins were isolated from Escherichia coli K12 by growth of Escherichia coli K12 from a single colony in 4 L of Luria-Bertani (LB) broth at 35° C. and 250 rpm to an OD600 nm of 0.5. The cells were harvested by centrifugation at 7,000×g for 10 min. at 4° C. Cells were resuspended and washed in 50 mM potassium phosphate pH 7.5. The cells were re-suspended in sonication buffer [50 mM Tris-HCl pH 7.5, 1 mM MgCl2, 1 mM beta-mercaptoethanol, and 5 μg/mL DNAse I] and sonicated by 4 passes of 30 seconds at 45 W on ice. The sample was clarified by centrifugation at 3,000×g to remove cell debris and unbroken cells and supernatant containing the membrane proteins was retained. The membrane proteins including the PBPs were further purified from soluble constituents by an ultracentrifugation step at 100,000×g for 30 min. at 4° C. The membrane proteins are washed twice with 10 mM sodium phosphate pH 7, resuspended in a volume of 5 mL, quantitated by BCA assay, adjusted to […] and frozen at −80° C. until use.
The adapted Bocillin FL competition binding method described herein incorporates a 15 min. pre-incubation of test compound with isolated PBPs to attempt to balance the difference in mechanism of inhibition between beta-lactams (largely irreversible covalent bond to active site Serine) and the boron-containing PBP inhibitor test compounds (reversible covalent bond to active site Serine). Briefly, 50 μL reactions consisted of 100 μg's of total membrane protein extracts containing PBPs incubated with a dilution series of test compound ranging from 0.005 μg/mL to 2,480 μg/mL in 10 mM sodium phosphate pH7 containing 350 mM NaCl. Thirty minute reactions at 35° C. were initiated by addition of […] Bocillin FL, quenched by addition of SDS-PAGE loading buffer containing sodium dodecyl sulfate (SDS) and heated for 15 minutes at 95° C. to denature proteins in preparation for SDS-polyacrylamide gel electrophoresis. The Bocillin FL labeled PBPs are then separated by SDS-PAGE in Novex NuPage 10% Bis-Tris pre-cast gels (Invitrogen). The SDS-PAGE gel, post-electrophoresis, is then washed in water to remove excess SDS for 10 minutes at room temperature and placed on the scanning bed of a GE Healthcare/Amersham Biosciences Storm 860 fluorescence scanner. The excitation wavelength is in the blue spectrum at 450 nm and the emission at 520 nm is captured by the instrument. Effective PBP inhibitors are detected by a reduction in Bocillin FL labeling of the particular PBP over the dose range of test compound in a dose-responsive manner. High molecular weight PBP 1a/1b are not resolved by these gels, thus we report HMW PBP binding results in μg/mL for PBPs 1a/1b combined as well as for PBP2 and PBP3.
To determine the ability of boronic acid-based test PBP inhibitors to bind Penicillin Binding Proteins (PBPs), a competition binding assay using a Bodipy-FL-labeled boronic acid PBP inhibitor (Example 125) was adapted from the classical method used to assess PBP potency of beta-lactams using Bocillin-FL (fluorescently-labeled penicillin V). The method is identical to that described in Example I for the Bocillin-FL competition binding assay with the following exceptions, the Bodipy-FL boronic acid probe (Example 125) is used at a final concentration of 30 μM, pre-incubation time of test compound with PBP enzymes is 10 minutes and reaction time is set for 10 minutes and reactions are prepared for SDS-PAGE analysis by simply adding SDS-containing loading buffer. Representative results are shown in Table 5, where A represents a potency of >1000 μg/mL, B represents a potency between 64 and 1000 μg/mL inclusive, and C represents a potency of <64 μg/mL. NT=Not Tested.

E. coli PBP3 = biological target: T3, E. coli PBP3 (Escherichia coli, UniProt P0AD68); test: Bocillin FL competition binding assay, PBP3; parameters: species or system Escherichia coli K12; conditions: 15 min pre-incubation
T3 construct: 100 μg's of total membrane protein extracts containing PBPs; endogenous in cells; host or cells: Escherichia coli K12, membrane protein fraction
Outline: as §2

S. aureus ATCC 29213 = test: Broth microdilution MIC assay, S. aureus; assay type: cell-based; conditions: Staphylococcus aureus, ATCC29213; broth microdilution, 16-20 hours at 37° C.; read-out: S. aureus 29213 MIC
Outline: as §1

E. coli K12 PBP1a/b = test: Bocillin FL competition binding assay, PBP1a/1b combined; parameters: species or system Escherichia coli K12; conditions: 15 min pre-incubation, PBP 1a/1b combined
Outline: as §2

T2 sequence (P02919 whole entry): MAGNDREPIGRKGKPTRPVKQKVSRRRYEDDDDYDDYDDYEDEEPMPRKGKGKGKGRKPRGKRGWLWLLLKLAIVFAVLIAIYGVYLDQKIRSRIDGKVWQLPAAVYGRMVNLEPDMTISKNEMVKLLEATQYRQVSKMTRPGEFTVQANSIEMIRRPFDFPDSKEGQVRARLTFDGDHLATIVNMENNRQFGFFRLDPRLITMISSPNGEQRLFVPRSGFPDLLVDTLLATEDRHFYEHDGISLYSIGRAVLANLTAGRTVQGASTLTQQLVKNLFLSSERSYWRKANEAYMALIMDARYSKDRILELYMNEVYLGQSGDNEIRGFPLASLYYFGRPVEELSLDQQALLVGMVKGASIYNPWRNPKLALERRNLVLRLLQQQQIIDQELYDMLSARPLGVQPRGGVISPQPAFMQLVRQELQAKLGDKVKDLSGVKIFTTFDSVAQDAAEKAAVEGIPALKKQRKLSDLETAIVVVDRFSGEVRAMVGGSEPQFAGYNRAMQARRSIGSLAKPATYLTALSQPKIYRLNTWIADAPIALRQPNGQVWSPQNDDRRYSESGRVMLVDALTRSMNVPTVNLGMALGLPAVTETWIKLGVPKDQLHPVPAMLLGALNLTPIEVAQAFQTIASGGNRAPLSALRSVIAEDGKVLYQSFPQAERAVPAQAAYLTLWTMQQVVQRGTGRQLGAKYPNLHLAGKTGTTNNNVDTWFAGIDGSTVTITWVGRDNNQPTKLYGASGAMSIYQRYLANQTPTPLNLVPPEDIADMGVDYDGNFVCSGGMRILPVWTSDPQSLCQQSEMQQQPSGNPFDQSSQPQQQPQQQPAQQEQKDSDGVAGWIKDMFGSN
T1 sequence (P0AD65 whole entry): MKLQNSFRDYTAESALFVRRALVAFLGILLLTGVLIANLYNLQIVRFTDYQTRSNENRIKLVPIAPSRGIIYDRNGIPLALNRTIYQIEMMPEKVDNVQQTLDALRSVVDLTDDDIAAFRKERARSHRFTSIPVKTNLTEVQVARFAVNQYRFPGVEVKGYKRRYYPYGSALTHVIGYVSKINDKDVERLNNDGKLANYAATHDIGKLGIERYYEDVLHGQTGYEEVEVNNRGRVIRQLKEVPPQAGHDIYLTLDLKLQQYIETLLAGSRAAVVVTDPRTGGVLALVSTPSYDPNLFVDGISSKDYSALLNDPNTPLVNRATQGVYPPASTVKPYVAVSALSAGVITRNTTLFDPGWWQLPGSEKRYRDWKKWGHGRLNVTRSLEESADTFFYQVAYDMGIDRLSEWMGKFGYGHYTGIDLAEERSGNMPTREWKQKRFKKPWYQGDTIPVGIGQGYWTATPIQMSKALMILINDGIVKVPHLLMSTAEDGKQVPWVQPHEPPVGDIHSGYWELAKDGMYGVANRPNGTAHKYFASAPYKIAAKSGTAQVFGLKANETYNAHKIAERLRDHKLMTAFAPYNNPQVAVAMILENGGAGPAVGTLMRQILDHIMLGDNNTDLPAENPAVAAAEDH
T3 sequence (P0AD68 1-577): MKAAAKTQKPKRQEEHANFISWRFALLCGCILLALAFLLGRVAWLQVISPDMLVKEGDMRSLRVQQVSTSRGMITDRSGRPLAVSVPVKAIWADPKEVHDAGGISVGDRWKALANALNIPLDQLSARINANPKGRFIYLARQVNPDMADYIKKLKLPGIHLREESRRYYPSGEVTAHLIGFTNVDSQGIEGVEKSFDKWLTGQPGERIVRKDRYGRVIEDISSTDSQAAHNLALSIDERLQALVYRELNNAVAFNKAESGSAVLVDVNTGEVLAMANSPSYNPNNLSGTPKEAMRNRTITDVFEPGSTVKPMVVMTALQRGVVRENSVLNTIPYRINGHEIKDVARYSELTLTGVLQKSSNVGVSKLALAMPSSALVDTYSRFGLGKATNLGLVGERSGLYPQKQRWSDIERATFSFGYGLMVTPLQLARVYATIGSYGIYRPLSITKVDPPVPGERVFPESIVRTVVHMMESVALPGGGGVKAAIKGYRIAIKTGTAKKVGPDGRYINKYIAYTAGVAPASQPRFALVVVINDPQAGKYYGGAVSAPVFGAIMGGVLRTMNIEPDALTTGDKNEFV

Row | SMILES | MIC [1] | E. coli PBP2 Potency (E. coli PBP2) | E. coli K12 PBP1b Potency (E. coli K12 PBP1b) | E. coli PBP3 Potency (E. coli PBP3) | MIC (S. aureus ATCC 29213) | E. coli K12 PBP1a/b Potency (E. coli K12 PBP1a/b)
1 | N=C(NC1CCNCC1)c1ccc(OCCO/N=C(\C(=O)N[C@H]2Cc3cccc(C(=O)O)c3OB2O)c2csc(N)n2)cc1 [Example 47, (R,Z)-3-(2-(2-aminothiazol-4-yl)-2-((2-(4-(N-(piperidin-4-yl)carbamimidoyl)phenoxy)ethoxy)imino)acetamido)-2-hydroxy-3,4-dihydro-2H-benzo[e][1,2]oxaborinine-8-carboxylic Acid] | < 64 µg/mL | B (B represents a potency between 64 and 1000 μg/mL inclusive) | B (B represents a potency between 64 and 1000 μg/mL inclusive) | B (B represents a potency between 64 and 1000 μg/mL inclusive) | 64 to 128 µg/mL | B (B represents a potency between 64 and 1000 μg/mL inclusive)
2 | CC(C)NC(=N)c1ccc(OCCO/N=C(\C(=O)N[C@H]2Cc3cccc(C(=O)O)c3OB2O)c2csc(N)n2)cc1 [Example 49, (R,Z)-3-(2-(2-aminothiazol-4-yl)-2-((2-(4-(N-isopropylcarbamimidoyl)phenoxy)ethoxy)imino)acetamido)-2-hydroxy-3,4-dihydro-2H-benzo[e][1,2]oxaborinine-8-carboxylic Acid] | < 64 µg/mL | B (B represents a potency between 64 and 1000 μg/mL inclusive) | A (A represents a potency of >1000 μg/mL) | B (B represents a potency between 64 and 1000 μg/mL inclusive) | 64 to 128 µg/mL | B (B represents a potency between 64 and 1000 μg/mL inclusive)
3 | Nc1nc(/C(=N/OCCF)C(=O)N[C@H]2Cc3cccc(C(=O)O)c3OB2O)cs1 [Example 113, (R,Z)-3-(2-(2-aminothiazol-4-yl)-2-((2-fluoroethoxy)imino)acetamido)-2-hydroxy-3,4-dihydro-2H-benzo[e][1,2]oxaborinine-8-carboxylic Acid] | < 64 µg/mL |  | B (B represents a potency between 64 and 1000 μg/mL inclusive) |  | 64 to 128 µg/mL | 
4 | CC(C)(O/N=C(\C(=O)N[C@H]1Cc2cc(O)cc(C(=O)O)c2OB1O)c1csc(N)n1)C(N)=O [Example 82, (R,Z)-3-(2-(((1-amino-2-methyl-1-oxopropan-2-yl)oxy)imino)-2-(2-aminothiazol-4-yl)acetamido)-2,6-dihydroxy-3,4-dihydro-2H-benzo[e][1,2]oxaborinine-8-carboxylic Acid] | < 64 µg/mL |  | B (B represents a potency between 64 and 1000 μg/mL inclusive) |  | > 128 µg/mL | 
5 | Nc1nc(/C(=N/OCC(O)CO)C(=O)N[C@H]2Cc3cccc(C(=O)O)c3OB2O)cs1 (stereo partly drawn) [Example 76, (3R)-3-((Z)-2-(2-aminothiazol-4-yl)-2-((2,3-dihydroxypropoxy)imino)acetamido)-2-hydroxy-3,4-dihydro-2H-benzo[e][1,2]oxaborinine-8-carboxylic Acid] | < 64 µg/mL |  | B (B represents a potency between 64 and 1000 μg/mL inclusive) |  | 64 to 128 µg/mL | 
6 | NCCCC[C@@H](NC(=O)CO/N=C(\C(=O)N[C@H]1Cc2cccc(C(=O)O)c2OB1O)c1csc(N)n1)C(=O)O [Example 66, (R)-3-((Z)-2-((2-(((R)-5-amino-1-carboxypentyl)amino)-2-oxoethoxy)imino)-2-(2-aminothiazol-4-yl)acetamido)-2-hydroxy-3,4-dihydro-2H-benzo[e][1,2]oxaborinine-8-carboxylic Acid] | < 64 µg/mL | B (B represents a potency between 64 and 1000 μg/mL inclusive) |  | C (C represents a potency of <64 μg/mL) | > 128 µg/mL | C (C represents a potency of <64 μg/mL)
7 | CNC(=O)C(C)(C)O/N=C(\C(=O)N[C@H]1Cc2cccc(C(=O)O)c2OB1O)c1csc(N)n1 [Example 69, (R,Z)-3-(2-(2-aminothiazol-4-yl)-2-(((2-methyl-1-(methylamino)-1-oxopropan-2-yl)oxy)imino)acetamido)-2-hydroxy-3,4-dihydro-2H-benzo[e][1,2]oxaborinine-8-carboxylic Acid] | < 64 µg/mL | C (C represents a potency of <64 μg/mL) |  | C (C represents a potency of <64 μg/mL) | > 128 µg/mL | C (C represents a potency of <64 μg/mL)
8 | NCc1ccc(/C(=N/O)C(=O)N[C@H]2Cc3cccc(C(=O)O)c3OB2O)cc1 [Example 12, (R,Z)-3-(2-(4-(aminomethyl)phenyl)-2-(hydroxyimino)acetamido)-2-hydroxy-3,4-dihydro-2H-benzo[e][1,2]oxaborinine-8-carboxylic Acid] | > 128 µg/mL | B (B represents a potency between 64 and 1000 μg/mL inclusive) |  | B (B represents a potency between 64 and 1000 μg/mL inclusive) | < 64 µg/mL | B (B represents a potency between 64 and 1000 μg/mL inclusive)
9 | CC(C)(O/N=C(\C(=O)N[C@H]1Cc2cccc(C(=O)O)c2OB1O)c1csc(N)n1)C(N)=O [Example 72, (R,Z)-3-(2-(((1-amino-2-methyl-1-oxopropan-2-yl)oxy)imino)-2-(2-aminothiazol-4-yl)acetamido)-2-hydroxy-3,4-dihydro-2H-benzo[e][1,2]oxaborinine-8-carboxylic Acid] | < 64 µg/mL | C (C represents a potency of <64 μg/mL) |  | C (C represents a potency of <64 μg/mL) | > 128 µg/mL | C (C represents a potency of <64 μg/mL)
